Assay: xn = mol fraction of the nth substance listed

CCCCOC(C)=O + CCCCCCCCO
viscosity [mPa·s], 101 kPa
Conditions | x2 = 0.085 | x2 = 0.1729 | x2 = 0.2638 | x2 = 0.3579 | x2 = 0.4554 | x2 = 0.5564 | x2 = 0.6611 | x2 = 0.7698 | x2 = 0.8827
298.15 K | 0.884 | 1.13 | – | 1.808 | 2.27 | 2.845 | 3.578 | 4.535 | 5.81
303.15 K | 0.813 | 1.03 | 1.298 | 1.623 | 2.017 | 2.505 | 3.119 | 3.918 | 4.98
308.15 K | 0.748 | 0.938 | 1.171 | 1.453 | 1.789 | 2.197 | 2.71 | 3.378 | 4.252
313.15 K | 0.689 | 0.855 | 1.059 | 1.305 | 1.591 | 1.938 | 2.372 | 2.932 | 3.66

CCCOC(=O)c1ccccc1 + CCCCCCCCCCCC
101 kPa
Conditions | viscosity [mPa·s]
298.15 K, x2 = 0.0304 | 2.294
298.15 K, x2 = 0.0721 | 2.175
298.15 K, x2 = 0.1434 | 2.021
298.15 K, x2 = 0.1817 | 1.949
298.15 K, x2 = 0.2145 | 1.892
298.15 K, x2 = 0.3444 | 1.688
298.15 K, x2 = 0.3881 | 1.634
298.15 K, x2 = 0.4343 | 1.583
298.15 K, x2 = 0.4851 | 1.537
298.15 K, x2 = 0.5395 | 1.494
298.15 K, x2 = 0.5883 | 1.458
298.15 K, x2 = 0.6355 | 1.431
298.15 K, x2 = 0.6936 | 1.402
298.15 K, x2 = 0.7544 | 1.38
298.15 K, x2 = 0.8162 | 1.368
298.15 K, x2 = 0.8809 | 1.358
298.15 K, x2 = 0.9435 | 1.354
308.15 K, x2 = 0.0462 | 1.805
308.15 K, x2 = 0.0938 | 1.716
308.15 K, x2 = 0.1234 | 1.663
308.15 K, x2 = 0.1581 | 1.608
308.15 K, x2 = 0.1951 | 1.553
308.15 K, x2 = 0.237 | 1.499
308.15 K, x2 = 0.2799 | 1.449
308.15 K, x2 = 0.3153 | 1.411
308.15 K, x2 = 0.359 | 1.37
308.15 K, x2 = 0.4106 | 1.326
308.15 K, x2 = 0.4473 | 1.299
308.15 K, x2 = 0.4959 | 1.267
308.15 K, x2 = 0.5498 | 1.236
308.15 K, x2 = 0.6007 | 1.21
308.15 K, x2 = 0.6592 | 1.191
308.15 K, x2 = 0.7183 | 1.172
308.15 K, x2 = 0.7624 | 1.163
308.15 K, x2 = 0.8324 | 1.153
308.15 K, x2 = 0.9146 | 1.146
318.15 K, x2 = 0.026 | 1.532
318.15 K, x2 = 0.0634 | 1.473
318.15 K, x2 = 0.0967 | 1.423
318.15 K, x2 = 0.1355 | 1.371
318.15 K, x2 = 0.1705 | 1.328
318.15 K, x2 = 0.2119 | 1.28
318.15 K, x2 = 0.2499 | 1.242
318.15 K, x2 = 0.2955 | 1.201
318.15 K, x2 = 0.3358 | 1.168
318.15 K, x2 = 0.4031 | 1.12
318.15 K, x2 = 0.4279 | 1.105
318.15 K, x2 = 0.48 | 1.077
318.15 K, x2 = 0.5272 | 1.055
318.15 K, x2 = 0.5827 | 1.033
318.15 K, x2 = 0.6342 | 1.015
318.15 K, x2 = 0.6953 | 0.997
318.15 K, x2 = 0.7509 | 0.985
318.15 K, x2 = 0.8169 | 0.975
318.15 K, x2 = 0.8761 | 0.968

CCCN + CCCCCCCCO
viscosity [mPa·s], 101.33 kPa
Conditions | x1 = 0.1005 | x1 = 0.1898 | x1 = 0.3064 | x1 = 0.385 | x1 = 0.4834 | x1 = 0.5835 | x1 = 0.6813 | x1 = 0.7916 | x1 = 0.8908
303.15 K | 4.988 | 4.15 | 3.23 | 2.689 | 2.107 | 1.601 | 1.182 | 0.8056 | 0.5464
313.15 K | 3.651 | 3.052 | 2.37 | 1.976 | 1.563 | 1.203 | 0.9234 | 0.6649 | 0.4703

CCCCCCCC(=O)O + ClC(Cl)(Cl)Cl
298.15 K, 101 kPa
Conditions | viscosity [mPa·s]
x1 = 0.05 | 1.011
x1 = 0.11 | 1.124
x1 = 0.16 | 1.248
x1 = 0.21 | 1.38
x1 = 0.42 | 2.021
x1 = 0.52 | 2.406
x1 = 0.62 | 2.867
x1 = 0.81 | 3.905
